Measurements from publication PMC6704710, “Preclinical evaluation of 3D185, a novel potent inhibitor of FGFR1/2/3 and CSF-1R, in FGFR-dependent and macrophage-dominant cancer models” (Journal of Experimental & Clinical Cancer Research : CR, 2019).

Legend:
Experiment in all cases: Eurofins kinase panel
Assay type in all cases: biochemical
Details in all cases: read-out: Inhibition rate (%)
EGFR(h) = molecular target: T1, EGFR(h) (Homo sapiens, UniProt P00533)
T1 construct: purchased Eurofins (KinaseProfiler)
T1 sequence (P00533 25-1210): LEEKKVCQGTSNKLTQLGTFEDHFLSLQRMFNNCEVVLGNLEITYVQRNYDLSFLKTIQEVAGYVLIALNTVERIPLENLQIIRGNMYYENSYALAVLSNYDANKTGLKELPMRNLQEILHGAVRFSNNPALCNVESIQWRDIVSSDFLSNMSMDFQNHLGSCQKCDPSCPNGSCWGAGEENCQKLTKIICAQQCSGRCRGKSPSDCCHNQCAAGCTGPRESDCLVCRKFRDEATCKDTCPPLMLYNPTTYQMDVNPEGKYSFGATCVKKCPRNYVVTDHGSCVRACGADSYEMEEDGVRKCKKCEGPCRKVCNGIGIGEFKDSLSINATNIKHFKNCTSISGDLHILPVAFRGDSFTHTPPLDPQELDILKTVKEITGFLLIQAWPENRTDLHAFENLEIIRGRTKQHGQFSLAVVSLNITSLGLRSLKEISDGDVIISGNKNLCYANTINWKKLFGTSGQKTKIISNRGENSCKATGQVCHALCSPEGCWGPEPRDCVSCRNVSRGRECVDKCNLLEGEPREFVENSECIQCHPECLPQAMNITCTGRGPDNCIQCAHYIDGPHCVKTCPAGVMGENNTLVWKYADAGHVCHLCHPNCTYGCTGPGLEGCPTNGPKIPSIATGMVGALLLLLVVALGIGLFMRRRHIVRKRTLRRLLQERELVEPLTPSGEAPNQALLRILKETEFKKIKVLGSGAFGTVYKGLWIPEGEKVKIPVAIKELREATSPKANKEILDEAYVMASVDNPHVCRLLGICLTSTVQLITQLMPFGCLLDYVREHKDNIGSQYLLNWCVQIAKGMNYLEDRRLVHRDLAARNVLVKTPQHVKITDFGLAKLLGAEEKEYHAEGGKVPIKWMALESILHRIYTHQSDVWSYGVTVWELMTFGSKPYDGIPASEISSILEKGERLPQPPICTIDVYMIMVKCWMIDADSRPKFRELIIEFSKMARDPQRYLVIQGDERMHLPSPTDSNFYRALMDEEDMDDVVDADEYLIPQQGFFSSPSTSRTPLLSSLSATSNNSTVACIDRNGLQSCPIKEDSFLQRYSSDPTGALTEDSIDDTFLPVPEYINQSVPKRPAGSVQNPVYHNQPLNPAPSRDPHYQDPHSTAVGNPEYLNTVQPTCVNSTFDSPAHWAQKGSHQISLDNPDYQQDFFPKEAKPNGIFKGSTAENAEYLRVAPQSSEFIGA

MEK2(h) = molecular target: T2, MEK2(h) (Homo sapiens, UniProt P36507)
T2 construct: purchased Eurofins (KinaseProfiler)
T2 sequence (P36507 whole entry): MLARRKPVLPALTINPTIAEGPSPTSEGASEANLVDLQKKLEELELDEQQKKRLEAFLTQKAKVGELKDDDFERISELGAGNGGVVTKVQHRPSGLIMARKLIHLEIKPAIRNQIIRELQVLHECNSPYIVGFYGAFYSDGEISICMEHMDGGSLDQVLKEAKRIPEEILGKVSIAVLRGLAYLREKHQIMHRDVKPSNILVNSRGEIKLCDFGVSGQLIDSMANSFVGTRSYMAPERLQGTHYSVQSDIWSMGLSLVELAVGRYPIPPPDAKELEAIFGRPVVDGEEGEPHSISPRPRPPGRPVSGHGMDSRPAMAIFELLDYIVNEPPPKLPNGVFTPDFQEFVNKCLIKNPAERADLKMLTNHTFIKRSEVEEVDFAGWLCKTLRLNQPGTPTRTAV

[1] = molecular target: T3, PI3 Kinase (p110α/p65α)(h) (Homo sapiens, UniProt P42336)
T3 construct: purchased Eurofins (KinaseProfiler)

[2] = molecular target: T4, PI3 Kinase (p110α/p85α)(h) (Homo sapiens, UniProt P42336)
T4 construct: purchased Eurofins (KinaseProfiler)

[3] = molecular target: T5, PI3 Kinase (p110δ/p85α)(h) (Homo sapiens, UniProt O00329)
T5 construct: purchased Eurofins (KinaseProfiler)
T5 sequence (O00329 whole entry): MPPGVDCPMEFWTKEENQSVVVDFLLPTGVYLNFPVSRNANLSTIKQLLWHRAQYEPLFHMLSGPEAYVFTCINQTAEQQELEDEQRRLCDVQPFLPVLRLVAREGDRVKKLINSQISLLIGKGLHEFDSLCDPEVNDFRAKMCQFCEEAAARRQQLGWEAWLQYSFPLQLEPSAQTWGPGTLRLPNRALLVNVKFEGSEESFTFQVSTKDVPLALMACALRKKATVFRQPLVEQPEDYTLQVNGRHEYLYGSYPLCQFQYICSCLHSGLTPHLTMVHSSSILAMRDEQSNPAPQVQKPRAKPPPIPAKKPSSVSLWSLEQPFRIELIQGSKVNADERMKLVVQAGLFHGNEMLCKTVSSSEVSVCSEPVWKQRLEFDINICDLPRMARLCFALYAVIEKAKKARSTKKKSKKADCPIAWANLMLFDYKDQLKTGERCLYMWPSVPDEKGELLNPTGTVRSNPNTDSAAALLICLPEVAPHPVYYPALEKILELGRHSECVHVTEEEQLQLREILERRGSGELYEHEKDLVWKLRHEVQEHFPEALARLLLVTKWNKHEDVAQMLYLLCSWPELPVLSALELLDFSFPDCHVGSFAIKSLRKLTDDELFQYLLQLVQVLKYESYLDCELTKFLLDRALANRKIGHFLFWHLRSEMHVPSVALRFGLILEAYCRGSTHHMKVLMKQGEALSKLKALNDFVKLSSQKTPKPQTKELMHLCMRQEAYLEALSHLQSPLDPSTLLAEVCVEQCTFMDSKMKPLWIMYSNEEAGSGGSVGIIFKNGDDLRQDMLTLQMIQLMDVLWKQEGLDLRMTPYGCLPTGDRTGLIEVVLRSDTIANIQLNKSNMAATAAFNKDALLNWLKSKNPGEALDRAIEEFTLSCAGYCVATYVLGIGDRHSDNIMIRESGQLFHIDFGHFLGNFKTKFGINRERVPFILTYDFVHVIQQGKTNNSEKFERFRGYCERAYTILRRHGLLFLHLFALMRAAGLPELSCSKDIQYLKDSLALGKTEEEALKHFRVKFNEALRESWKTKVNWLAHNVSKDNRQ
T5 sequence (P27986 whole entry partner): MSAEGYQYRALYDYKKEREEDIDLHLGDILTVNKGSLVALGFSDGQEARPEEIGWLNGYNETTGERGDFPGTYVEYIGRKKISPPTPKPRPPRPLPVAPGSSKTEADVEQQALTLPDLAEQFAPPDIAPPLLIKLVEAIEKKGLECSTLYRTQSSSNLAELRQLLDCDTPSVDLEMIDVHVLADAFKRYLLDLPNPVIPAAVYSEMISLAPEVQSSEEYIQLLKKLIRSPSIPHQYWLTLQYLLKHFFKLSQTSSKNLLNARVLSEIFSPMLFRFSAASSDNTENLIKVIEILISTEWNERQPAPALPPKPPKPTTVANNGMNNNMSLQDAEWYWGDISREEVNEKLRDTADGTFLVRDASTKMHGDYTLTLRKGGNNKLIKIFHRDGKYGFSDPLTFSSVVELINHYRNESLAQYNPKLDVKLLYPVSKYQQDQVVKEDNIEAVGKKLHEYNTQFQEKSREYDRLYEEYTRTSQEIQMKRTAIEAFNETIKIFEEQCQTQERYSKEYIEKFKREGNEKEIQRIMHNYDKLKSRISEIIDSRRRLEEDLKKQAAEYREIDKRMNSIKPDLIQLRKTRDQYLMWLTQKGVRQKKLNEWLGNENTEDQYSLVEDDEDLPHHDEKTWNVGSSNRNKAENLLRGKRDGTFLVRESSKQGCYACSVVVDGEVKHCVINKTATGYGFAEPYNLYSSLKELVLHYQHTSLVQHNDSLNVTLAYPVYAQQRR

PhKγ1(h) = molecular target: T6, PhKγ1(h) (Homo sapiens, UniProt Q16816)
T6 construct: purchased Eurofins (KinaseProfiler)
T6 sequence (Q16816 whole entry): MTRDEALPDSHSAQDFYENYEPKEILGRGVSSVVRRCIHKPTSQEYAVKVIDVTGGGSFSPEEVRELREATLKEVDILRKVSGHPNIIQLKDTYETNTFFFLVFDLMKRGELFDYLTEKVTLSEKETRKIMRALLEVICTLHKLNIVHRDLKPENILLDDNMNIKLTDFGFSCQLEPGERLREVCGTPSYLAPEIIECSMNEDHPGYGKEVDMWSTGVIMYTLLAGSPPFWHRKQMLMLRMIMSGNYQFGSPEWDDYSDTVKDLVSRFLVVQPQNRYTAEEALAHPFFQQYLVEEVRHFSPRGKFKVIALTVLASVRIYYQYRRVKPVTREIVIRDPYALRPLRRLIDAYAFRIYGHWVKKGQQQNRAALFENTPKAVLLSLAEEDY

Pim-2(h) = molecular target: T7, Pim-2(h) (Homo sapiens, UniProt Q9P1W9)
T7 construct: purchased Eurofins (KinaseProfiler)
T7 sequence (Q9P1W9 whole entry): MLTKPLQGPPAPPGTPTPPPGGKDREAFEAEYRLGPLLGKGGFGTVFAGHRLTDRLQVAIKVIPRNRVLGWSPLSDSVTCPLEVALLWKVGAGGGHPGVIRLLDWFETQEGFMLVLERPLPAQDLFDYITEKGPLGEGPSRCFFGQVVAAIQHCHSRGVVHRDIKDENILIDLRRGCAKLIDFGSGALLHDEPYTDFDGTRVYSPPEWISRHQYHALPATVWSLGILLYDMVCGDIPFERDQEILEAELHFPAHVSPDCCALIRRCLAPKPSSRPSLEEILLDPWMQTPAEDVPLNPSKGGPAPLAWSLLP

SAPK4(h) = molecular target: T8, SAPK4(h) (Homo sapiens, UniProt O15264)
T8 construct: purchased Eurofins (KinaseProfiler)
T8 sequence (O15264 1-365): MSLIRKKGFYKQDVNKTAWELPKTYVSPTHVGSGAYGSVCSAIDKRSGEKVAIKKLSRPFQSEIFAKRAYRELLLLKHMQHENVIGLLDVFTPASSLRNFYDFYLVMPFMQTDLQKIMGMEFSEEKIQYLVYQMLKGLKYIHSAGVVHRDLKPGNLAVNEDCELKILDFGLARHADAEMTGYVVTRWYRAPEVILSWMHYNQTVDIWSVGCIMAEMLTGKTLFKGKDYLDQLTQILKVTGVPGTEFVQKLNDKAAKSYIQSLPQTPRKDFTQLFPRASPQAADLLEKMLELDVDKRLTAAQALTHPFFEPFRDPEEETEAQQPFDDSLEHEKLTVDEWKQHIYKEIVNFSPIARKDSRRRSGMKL

ZAP-70(h) = molecular target: T9, ZAP-70(h) (Homo sapiens, UniProt P43403)
T9 construct: purchased Eurofins (KinaseProfiler)
T9 sequence (P43403 1-619): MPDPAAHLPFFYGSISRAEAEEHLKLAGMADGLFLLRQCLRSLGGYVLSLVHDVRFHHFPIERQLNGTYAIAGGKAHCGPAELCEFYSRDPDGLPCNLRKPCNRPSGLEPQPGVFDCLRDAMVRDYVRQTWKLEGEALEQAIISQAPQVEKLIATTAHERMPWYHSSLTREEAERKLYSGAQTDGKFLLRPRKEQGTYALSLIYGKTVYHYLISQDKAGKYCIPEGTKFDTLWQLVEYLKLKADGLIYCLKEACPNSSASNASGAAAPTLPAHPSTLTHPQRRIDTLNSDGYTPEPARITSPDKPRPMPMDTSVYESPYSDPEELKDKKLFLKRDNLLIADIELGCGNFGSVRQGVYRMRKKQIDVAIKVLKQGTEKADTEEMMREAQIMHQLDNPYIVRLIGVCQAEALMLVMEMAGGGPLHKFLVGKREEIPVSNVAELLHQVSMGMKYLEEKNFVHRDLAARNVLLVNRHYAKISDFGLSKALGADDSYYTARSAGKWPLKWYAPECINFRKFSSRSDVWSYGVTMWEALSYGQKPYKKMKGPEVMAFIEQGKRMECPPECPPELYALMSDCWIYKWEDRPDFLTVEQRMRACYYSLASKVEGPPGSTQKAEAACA

COc1cc(OC)c(Cl)c(-c2ccc3c(NC(=O)c4ccc(N5CCNC(C)(C)C5)cc4)n[nH]c3n2)c1Cl [3D185]
inhibition at 0.01 µM (EGFR(h); 10 nM): -12% | inhibition at 0.1 µM (EGFR(h); 100 nM): -16% | inhibition at 1 µM (EGFR(h); 1000 nM): 0% | inhibition at 0.01 µM (MEK2(h); 10 nM): -18% | inhibition at 0.1 µM (MEK2(h); 100 nM): -19% | inhibition at 1 µM (MEK2(h); 1000 nM): 8% | inhibition at 0.01 µM ([1]; 10 nM): 3% | inhibition at 0.1 µM ([1]; 100 nM): 2% | inhibition at 1 µM ([1]; 1000 nM): 0% | inhibition at 0.01 µM ([2]; 10 nM): -1% | inhibition at 0.1 µM ([2]; 100 nM): 1% | inhibition at 1 µM ([2]; 1000 nM): 2% | inhibition at 0.01 µM ([3]; 10 nM): 1% | inhibition at 0.1 µM ([3]; 100 nM): -4% | inhibition at 1 µM ([3]; 1000 nM): 5% | inhibition at 0.01 µM (PhKγ1(h); 10 nM): -1% | inhibition at 0.1 µM (PhKγ1(h); 100 nM): -9% | inhibition at 1 µM (PhKγ1(h); 1000 nM): -12% | inhibition at 0.01 µM (Pim-2(h); 10 nM): 11% | inhibition at 0.1 µM (Pim-2(h); 100 nM): 3% | inhibition at 1 µM (Pim-2(h); 1000 nM): 6% | inhibition at 0.01 µM (SAPK4(h); 10 nM): -12% | inhibition at 0.1 µM (SAPK4(h); 100 nM): -8% | inhibition at 1 µM (SAPK4(h); 1000 nM): -11% | inhibition at 0.01 µM (ZAP-70(h); 10 nM): 12% | inhibition at 0.1 µM (ZAP-70(h); 100 nM): 0% | inhibition at 1 µM (ZAP-70(h); 1000 nM): 8%
